In PubChem BioAssay (NCI):
“And” between values parts separate entries of the source, which are not always exact repeats. Equal values may be shown once.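 Interpolation was linear, between the two tested concentrations surrounding the appropriate level; five concentrations were tested over 48 hours in 96-well plates. Abbreviation: GI50, concentration required for 50% inhibition of growth. The concentration for full growth arrest is given as TGI.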

What was measured:
Experiment in all cases: growth of human tumour cells (NCI), 48 h
ACHN renal = test system: ACHN renal
BT-549 breast = test system: BT-549 breast
COLO 205 colon = test system: COLO 205 colon
HCT-15 colon = test system: HCT-15 colon
MCF7 breast = test system: MCF7 breast
NCI-H226 lung = test system: NCI-H226 lung
NCI-H460 lung = test system: NCI-H460 lung
OVCAR-4 ovarian = test system: OVCAR-4 ovarian
SF-268 CNS = test system: SF-268 CNS
TK-10 renal = test system: TK-10 renal

CCN1C(=O)N(CC)C2C1NN=c1s/c(=C\c3cccc([N+](=O)[O-])c3)c(=O)n12 (stereo not drawn)
GI50 (ACHN renal): 0.0662 µM | TGI (ACHN renal): > 100 µM | GI50 (BT-549 breast): 0.291 µM | TGI (BT-549 breast): 33.5 µM | GI50 (COLO 205 colon): 0.0663 µM | TGI (COLO 205 colon): 0.538 µM | GI50 (HCT-15 colon): 0.0486 µM | TGI (HCT-15 colon): > 100 µM | GI50 (MCF7 breast): 0.0366 µM | TGI (MCF7 breast): > 100 µM | GI50 (NCI-H226 lung): 8.25 µM | TGI (NCI-H226 lung): > 100 µM | GI50 (NCI-H460 lung): 0.0491 µM | TGI (NCI-H460 lung): > 100 µM | GI50 (OVCAR-4 ovarian): 0.567 µM | TGI (OVCAR-4 ovarian): > 100 µM | GI50 (SF-268 CNS): 0.293 µM | TGI (SF-268 CNS): > 100 µM | GI50 (TK-10 renal): > 100 µM | TGI (TK-10 renal): > 100 µM

CC(=O)NC1=C(Sc2ccc(Cl)cc2)C(=O)c2ccccc2C1=O
TGI (ACHN renal): 4.85 µM | TGI (BT-549 breast): 18 µM | TGI (COLO 205 colon): 3.6 µM | TGI (HCT-15 colon): 19.1 µM | TGI (MCF7 breast): 5.01 µM | TGI (NCI-H226 lung): 24.2 µM | TGI (NCI-H460 lung): 23.2 µM | TGI (OVCAR-4 ovarian): 3.34 µM | TGI (SF-268 CNS): 8.41 µM | TGI (TK-10 renal): 13.5 µM

CSc1nc(N)c2c(n1)NC(c1ccccc1)C1CCc3ccccc3C1=N2 (stereo not drawn)
GI50 (ACHN renal): 84.4 µM | TGI (ACHN renal): > 100 µM | GI50 (BT-549 breast): > 100 µM | TGI (BT-549 breast): > 100 µM | GI50 (COLO 205 colon): 25.8 µM | TGI (COLO 205 colon): > 100 µM | GI50 (HCT-15 colon): 7.61 µM | TGI (HCT-15 colon): > 100 µM | GI50 (MCF7 breast): 52 µM | TGI (MCF7 breast): > 100 µM | GI50 (NCI-H226 lung): 42.3 µM | TGI (NCI-H226 lung): > 100 µM | GI50 (NCI-H460 lung): 8.29 µM | TGI (NCI-H460 lung): > 100 µM | GI50 (OVCAR-4 ovarian): 4.38 µM | TGI (OVCAR-4 ovarian): > 100 µM | GI50 (SF-268 CNS): > 100 µM | TGI (SF-268 CNS): > 100 µM | GI50 (TK-10 renal): > 100 µM | TGI (TK-10 renal): > 100 µM

CC(C)(C)OC(=O)NCCCCCCCCCCn1c2c(c3ccccc3c1=O)C(=O)c1ccccc1-2
GI50 (ACHN renal): 18.5 µM | TGI (ACHN renal): 66 µM | GI50 (BT-549 breast): 57.5 µM | TGI (BT-549 breast): > 100 µM | GI50 (COLO 205 colon): > 100 µM | TGI (COLO 205 colon): > 100 µM | GI50 (HCT-15 colon): > 100 µM | TGI (HCT-15 colon): > 100 µM | GI50 (MCF7 breast): > 100 µM | TGI (MCF7 breast): > 100 µM | GI50 (NCI-H226 lung): > 100 µM | TGI (NCI-H226 lung): > 100 µM | GI50 (NCI-H460 lung): > 100 µM | TGI (NCI-H460 lung): > 100 µM | GI50 (OVCAR-4 ovarian): > 100 µM | TGI (OVCAR-4 ovarian): > 100 µM | GI50 (SF-268 CNS): 21.9 µM | TGI (SF-268 CNS): > 100 µM | GI50 (TK-10 renal): 20.3 µM | TGI (TK-10 renal): 52.1 µM

C[C@@](O)(/C=C/[C@H]1CC=CC(=O)O1)[C@@H](C[C@@H](O)\C=C/C=C\C=C\CO)OP(=O)(O)O
TGI (ACHN renal): 20.4 µM | TGI (BT-549 breast): 36.6 µM | TGI (COLO 205 colon): 18.2 µM and 18.7 µM | GI50 (HCT-15 colon): 11.4 µM | TGI (HCT-15 colon): 55.9 µM and 79.4 µM | GI50 (MCF7 breast): 5.01 µM | TGI (MCF7 breast): 13.9 µM and 50.4 µM | TGI (NCI-H226 lung): 18.7 µM | GI50 (NCI-H460 lung): 14.2 µM | TGI (NCI-H460 lung): 63.6 µM and 78.5 µM | TGI (OVCAR-4 ovarian): 25.5 µM | GI50 (SF-268 CNS): 12.2 µM | TGI (SF-268 CNS): 83.2 µM and 99.1 µM | TGI (TK-10 renal): 46.6 µM

Clc1ccc(N2CCC(N3CCCC3)CC2)cc1-c1nc2ccccc2[nH]1
GI50 (ACHN renal): 26.7 µM | TGI (ACHN renal): 67.4 µM | GI50 (BT-549 breast): 14.1 µM | TGI (BT-549 breast): 31.2 µM | GI50 (COLO 205 colon): 16 µM | TGI (COLO 205 colon): 30.8 µM | GI50 (HCT-15 colon): 18.7 µM | TGI (HCT-15 colon): 38.5 µM | GI50 (MCF7 breast): 15.8 µM | TGI (MCF7 breast): 30.7 µM | GI50 (NCI-H226 lung): 18.4 µM | TGI (NCI-H226 lung): 43.8 µM | GI50 (NCI-H460 lung): 22.9 µM | TGI (NCI-H460 lung): 50.1 µM | GI50 (OVCAR-4 ovarian): 27.1 µM | TGI (OVCAR-4 ovarian): > 91.4 µM | GI50 (SF-268 CNS): 15.4 µM | TGI (SF-268 CNS): 31.8 µM | GI50 (TK-10 renal): 20.7 µM | TGI (TK-10 renal): 42.2 µM

Nc1cc2nc3ccccc3oc-2cc1=O
GI50 (ACHN renal): 12.4 µM | TGI (ACHN renal): > 79 µM | GI50 (BT-549 breast): 1.54 µM | TGI (BT-549 breast): 3.53 µM | GI50 (COLO 205 colon): 1.82 µM | TGI (COLO 205 colon): 3.42 µM | GI50 (HCT-15 colon): 0.641 µM | GI50 (MCF7 breast): 1.35 µM | TGI (MCF7 breast): 3.33 µM | GI50 (NCI-H226 lung): 2.57 µM | TGI (NCI-H226 lung): 9.2 µM | GI50 (NCI-H460 lung): 1.77 µM | TGI (NCI-H460 lung): 4.36 µM | GI50 (OVCAR-4 ovarian): 23.4 µM | TGI (OVCAR-4 ovarian): > 100 µM | GI50 (SF-268 CNS): 4.85 µM | TGI (SF-268 CNS): > 57.2 µM | GI50 (TK-10 renal): 14.3 µM | TGI (TK-10 renal): 39.7 µM
